According to patent US8901118B2, “Compounds and methods for kinase modulation, and indications therefor” (Plexxikon Inc., priority 2010, dated 2014):

Tested on: SKNSH cells
Assay: SKNSH (human neuroblastoma) cell proliferation assay (ATPlite)
Type: cell-based
Details: SK-N-SH, read-out: Inhibition of Cell Proliferation IC50, SKNSH
Description: Compounds are assessed in a variety of cell based assays. For example BaF3 cells engineered with any of BCR-FMS, BCR-KIT, BCR-FLT3, BCR-NTRK1, BCR-NTRK2, and BCR-NTRK3, are used in cell proliferation assays to assess inhibitory activity of Fms, Kit, Flt-3, TrkA, TrkB, and TrkC, respectively. An MV-4-11 (leukemia) cell proliferation assay is used to assess inhibitory activity in Flt-3, and SKNSH (human neuroblastoma) cell proliferation assay is used to assess efficacy of Fms/Trk inhibitors. Additional cells may be assayed similarly to assess the efficacy of Fms/Trk inhibitors, such as MiaPaCa (human pancreatic cancer) and Capan-1 (human pancreatic carcinoma) cells. Reagent and assay conditions are as follows: • BaF3 cells: • Maintained in RPMI containing 10% FBS, 1% PenStrep, 1% NEAA, and 1% L-Glutamine, supplemented with 1 mg/mL G418 and 5% WEHI-CM (or recombinant murine IL-3). • Confluent cells are split 1:50 to 1:100 every 3-4 days. • MV-4-11 cells: • Maintained in Iscove's Modified Dulbecco's Medium containing 10% FBS. • Confluent cells are split 1:4 every 3-4 days. • SKNSH cells: RPMI containing 10% FBS. On day 1, cells are counted, then centrifuged in a conical tube for 5 minutes at 1000 rpm. The supernatant is removed and cells are re-suspended as follows: • BaF3: resuspend in growth media +1 mg/mL G418 (without WEHFIL-3) to 2×10^5 cells/mL. • MV-4-11: resuspend in growth media to 5×10^5 cells/mL. • SKNSH: resuspend in growth media to 2×10^4 cells/mL. The cells are plated (50 μL, 150 μL for SKNSH cells) in each well of a 96-well dish (Corning 3610) and incubated at 37° C. in 5% CO2 overnight, cells plated to a final concentration of cells as follows: • BaF3: 10,000 cells per well. • MV-4-11: 25,000 cells per well. • SKNSH: 3,000 cells per well. On day 2, compound at a maximum concentration of 5 mM is serially diluted 1:3 for a total of 8 point titration with DMSO as a control. A 1 μL aliquot of each dilution point is added to 249 μL growth media and 50 μL is added to a well containing cells, providing 10 μM compound for the maximum concentration point. The cells are incubated for 3 days at 37° C. in 5% CO2. For SKNSH cells, a 0.75 μL aliquot of appropriate dilution in DMSO is added to 150 μL of cells. On day 5, ATPlite 1 step Luminescence Assay System (Perkin Elmer #6016739) is brought to room temperature along with the cell cultures. ATPlite is added to each well as follows: • BaF3: 25 μL per well. • MV-4-11: 40 μL per well. • SKNSH: 20 μL per well. The cells are incubated at room temperature for 10 minutes, then luminescence is read on Safire reader. The measured luminescence correlates directly with cell number, such that the reading as a function of compound concentration is used to determine the IC50 value.
It is understood that the results of these assays may vary as assay conditions are varied. Inhibition levels determined under the conditions described herein represent a relative activity for the compounds tested under the specific conditions employed. The cell based assays are likely to show variability due to the complexity of the system and the sensitivity thereof to any changes in the assay conditions. […] Results for compounds that are tested and show substantially no inhibition below the highest tested concentration are represented as “-” in the tables below. In some instances, the compounds were not tested in all of the assays, or assay results were not valid, as indicated by NA in the tables below.

IC50 [nM]	Structure (SMILES)
< 1000	COc1ccc(Nc2ccc(C(=O)c3c[nH]c4ncnc(NC(C)(C)C)c34)c(F)n2)cn1 [Compound P-4055, [4-(tert-butylamino)-7H-pyrrolo[2,3-d]pyrimidin-5-yl]-[2-fluoro-6-[(6-methoxy-3-pyridyl)amino]-3-pyridyl]methanone]
< 10000	CNc1ncnc2[nH]cc(C(=O)c3ccc(NC4CCC(F)(F)CC4)nc3Cl)c12 [Compound P-4058, [2-chloro-6-[(4,4-difluorocyclohexyl)amino]-3-pyridyl]-[4-(methylamino)-7H-pyrrolo[2,3-d]pyrimidin-5-yl]methanone]
< 1000	O=C(c1ccc(NC2CCC(F)(F)CC2)nc1Cl)c1c[nH]c2ncnc(NC3CC3)c12 [Compound P-4059, [2-chloro-6-[(4,4-difluorocyclohexyl)amino]-3-pyridyl]-[4-(cyclopropylamino)-7H-pyrrolo[2,3-d]pyrimidin-5-yl]methanone]
< 100	CCNc1ncnc2[nH]cc(C(=O)c3ccc(Nc4ccc(C5CC5)nc4)nc3F)c12 [Compound P-4060, [6-[(6-cyclopropyl-3-pyridyl)amino]-2-fluoro-3-pyridyl]-[4-(ethylamino)-7H-pyrrolo[2,3-d]pyrimidin-5-yl]methanone]
< 100	O=C(c1ccc(Nc2ccc(C(F)(F)F)nc2)nc1F)c1c[nH]c2ncnc(NC3CC3)c12 [Compound P-4091, [4-(cyclopropylamino)-7H-pyrrolo[2,3-d]pyrimidin-5-yl]-[2-fluoro-6-[[6-(trifluoromethyl)-3-pyridyl]amino]-3-pyridyl]methanone]
< 10000	CCc1ccc(Nc2ccc(C(=O)c3c[nH]c4ncnc(NCCCOC)c34)c(F)n2)cn1 [Compound P-4098, [6-[(6-ethyl-3-pyridyl)amino]-2-fluoro-3-pyridyl]-[4-(3-methoxypropylamino)-7H-pyrrolo[2,3-d]pyrimidin-5-yl]methanone]
< 1000	CCCCNc1ncnc2[nH]cc(C(=O)c3ccc(Nc4ccc(CC)nc4)nc3F)c12 [Compound P-4100, [4-(butylamino)-7H-pyrrolo[2,3-d]pyrimidin-5-yl]-[6-[(6-ethyl-3-pyridyl)amino]-2-fluoro-3-pyridyl]methanone]
> 1000	COc1cncc(Nc2ccc(C(=O)c3c[nH]c4ncnc(NCC(F)(F)F)c34)c(F)n2)c1 [Compound P-4103, [2-fluoro-6-[(5-methoxy-3-pyridyl)amino]-3-pyridyl]-[4-(2,2,2-trifluoroethylamino)-7H-pyrrolo[2,3-d]pyrimidin-5-yl]methanone]
< 10000	CCCNc1ncnc2[nH]cc(C(=O)c3ccc(Nc4cncc(OC)c4)nc3F)c12 [Compound P-4105, [2-fluoro-6-[(5-methoxy-3-pyridyl)amino]-3-pyridyl]-[4-(propylamino)-7H-pyrrolo[2,3-d]pyrimidin-5-yl]methanone]
< 1000	COc1cncc(Nc2ccc(C(=O)c3c[nH]c4ncnc(NC(C)C)c34)c(F)n2)c1 [Compound P-4106, [2-fluoro-6-[(5-methoxy-3-pyridyl)amino]-3-pyridyl]-[4-(isopropylamino)-7H-pyrrolo[2,3-d]pyrimidin-5-yl]methanone]

Further lines, the compound ahead of its results:

Structure (SMILES)	IC50 [nM]
COc1ccc(Nc2ccc(C(=O)c3c[nH]c4ncnc(NC5CCC(F)(F)CC5)c34)c(F)n2)cn1 [Compound P-4056, [4-[(4,4-difluorocyclohexyl)amino]-7H-pyrrolo[2,3-d]pyrimidin-5-yl]-[2-fluoro-6-[(6-methoxy-3-pyridyl)amino]-3-pyridyl]methanone]	< 1000
O=C(c1ccc(NC2CCC(F)(F)CC2)nc1Cl)c1c[nH]c2ncnc(NCC(F)(F)F)c12 [Compound P-4057, [2-chloro-6-[(4,4-difluorocyclohexyl)amino]-3-pyridyl]-[4-(2,2,2-trifluoroethylamino)-7H-pyrrolo[2,3-d]pyrimidin-5-yl]methanone]	< 10000
CNc1ncnc2[nH]cc(C(=O)c3ccc(NC4CCC(F)(F)CC4)nc3F)c12 [Compound P-4063, [6-[(4,4-difluorocyclohexyl)amino]-2-fluoro-3-pyridyl]-[4-(methylamino)-7H-pyrrolo[2,3-d]pyrimidin-5-yl]methanone]	< 1000
CCc1ccc(Nc2ccc(C(=O)c3c[nH]c4ncnc(N)c34)c(F)n2)cn1 [Compound P-4065, (4-amino-7H-pyrrolo[2,3-d]pyrimidin-5-yl)-[6-[(6-ethyl-3-pyridyl)amino]-2-fluoro-3-pyridyl]methanone]	< 1000
CNc1ncnc2[nH]cc(C(=O)c3ccc(NC4CCC(F)(F)CC4)nc3)c12 [Compound P-4089, [6-[(4,4-difluorocyclohexyl)amino]-3-pyridyl]-[4-(methylamino)-7H-pyrrolo[2,3-d]pyrimidin-5-yl]methanone]	< 10000
CNc1ncnc2[nH]cc(C(=O)c3ccc(Nc4ccc(C(F)(F)F)nc4)nc3F)c12 [Compound P-4092, [2-fluoro-6-[[6-(trifluoromethyl)-3-pyridyl]amino]-3-pyridyl]-[4-(methylamino)-7H-pyrrolo[2,3-d]pyrimidin-5-yl]methanone]	< 1000
CNc1ncnc2[nH]cc(C(=O)c3ccc(Nc4ccc(C5CC5)nc4)nc3F)c12 [Compound P-4094, [6-[(6-cyclopropyl-3-pyridyl)amino]-2-fluoro-3-pyridyl]-[4-(methylamino)-7H-pyrrolo[2,3-d]pyrimidin-5-yl]methanone]	< 1000
CCc1ccc(Nc2ccc(C(=O)c3c[nH]c4ncnc(NC5CCC5)c34)c(F)n2)cn1 [Compound P-4095, [4-(cyclobutylamino)-7H-pyrrolo[2,3-d]pyrimidin-5-yl]-[6-[(6-ethyl-3-pyridyl)amino]-2-fluoro-3-pyridyl]methanone]	< 1000
CCc1ccc(Nc2ccc(C(=O)c3c[nH]c4ncnc(NC5CCC(F)(F)CC5)c34)c(F)n2)cn1 [Compound P-4096, [4-[(4,4-difluorocyclohexyl)amino]-7H-pyrrolo[2,3-d]pyrimidin-5-yl]-[6-[(6-ethyl-3-pyridyl)amino]-2-fluoro-3-pyridyl]methanone]	< 10000
CCc1ccc(Nc2ccc(C(=O)c3c[nH]c4ncnc(N[C@@H](C)c5ccc(F)cc5)c34)c(F)n2)cn1 [Compound P-4097, [6-[(6-ethyl-3-pyridyl)amino]-2-fluoro-3-pyridyl]-[4-[[(1S)-1-(4-fluorophenyl)ethyl]amino]-7H-pyrrolo[2,3-d]pyrimidin-5-yl]methanone]	< 10000
CCc1ccc(Nc2ccc(C(=O)c3c[nH]c4ncnc(NC5CCCC5)c34)c(F)n2)cn1 [Compound P-4099, [4-(cyclopentylamino)-7H-pyrrolo[2,3-d]pyrimidin-5-yl]-[6-[(6-ethyl-3-pyridyl)amino]-2-fluoro-3-pyridyl]methanone]	< 1000
CC(C)Nc1ncnc2[nH]cc(C(=O)c3ccc(NC4CCCCC4)nc3F)c12 [Compound P-4101, [6-(cyclohexylamino)-2-fluoro-3-pyridyl]-[4-(isopropylamino)-7H-pyrrolo[2,3-d]pyrimidin-5-yl]methanone]	< 1000
CNc1ncnc2[nH]cc(C(=O)c3ccc(NC4CCCCC4)nc3F)c12 [Compound P-4102, [6-(cyclohexylamino)-2-fluoro-3-pyridyl]-[4-(methylamino)-7H-pyrrolo[2,3-d]pyrimidin-5-yl]methanone]	< 1000
COc1cncc(Nc2ccc(C(=O)c3c[nH]c4ncnc(NC5CCCCC5)c34)c(F)n2)c1 [Compound P-4104, [4-(cyclohexylamino)-7H-pyrrolo[2,3-d]pyrimidin-5-yl]-[2-fluoro-6-[(5-methoxy-3-pyridyl)amino]-3-pyridyl]methanone]	< 1000
